Measurements published in US8192962B2, “Processes for detecting toxic substances” (Daikin Industries, Ltd., priority 2001, dated 2012).

Tested on: Metabolism protein genes
Assay: DNA chip mRNA expression in yeast, metabolism protein genes (Table 7)
Format: cell-based, Saccharomyces cerevisiae S288C
Procedure: Yeast (Saccharomyces cerevisiae S288C (α SUC2mal mel gap2 CUP1)) were incubated at 25° C. on YPD medium (yeast extract 1%, polypepton 2%, glucose 2%). One of toxic chemical substances was added to the cells at logarithmic growth phase, and the cells were further incubated for two hours. Cells were cultured without any chemical substance in the same condition, and were used as control. Concentrations of the chemical substances were defined to inhibit the growth of the yeast but not lead to death.
After completion of the incubation, the culture was centrifuged to collect the cells. To the cells, sodium acetate buffer (50 mM sodium acetate, 10 mM EDTA, 1% SDS) was added, and the mixture was shaken at 65° C. for five minutes, followed by returning to room temperature, and obtaining the supernatant, of which the procedures were repeated two times. To the supernatant, ½ amount of a solution of phenol/chloroform was added, and the mixture was centrifuged to give a supernatant, which was added with an equal amount of chloroform, and the mixture was centrifuged to give a supernatant. To the supernatant, an equal amount of isopropanol containing 0.3 M sodium acetate was added, and the mixture was allowed to stand at room temperature for 30 minutes, after which the mixture was centrifuged to give a sediment of the whole RNAs. Seventy % ethanol was added to the sediment, and the mixture was again centrifuged to give a sediment, which was then dried and dissolved in water. mRNA was isolated from the whole RNAs as followings. In view of the fact that a poly A chain is attached to the 3′ terminus of mRNA, a polynucleotide having a poly T structure which was immobilized on the surface of latex beads was used to trap the mRNA, and then the mRNA was washed and eluted with spine column (Oligotex-dT30<Super>mRNA Purification Kit, Takara). Reverse transcription of the mRNA was conducted with a reverse transcriptase (Super Script II Reverse Transcriptase; catalogue No. 18064-014, GibcoBRL) using fluorescence-labeled nucleotides to give cDNAs that were introduced with Cy3-dUTP or Cy5-dUTP during the reverse transcription.
The labeled cDNAs were dissolved in TE buffer (10mM Tris-HCl/1 mM EDTA, pH8.0), and the solution was dropped on the DNA chip containing the whole genes of yeast (DNA Chip Research Inc. Japan) so that the cDNAs were hybridized on the DNA chip at 65° C. for over 12 hours. The fluoresces intensity of the DNA chip was read with a scanner, and the ratio relative to the fluorescence intensity resulting from the absence of chemical substance was estimated as the following, which is shown in Tables 1 to 9: […]

CN(C)C(=S)SSC(=S)N(C)C [(10), Tetramethylthiuram disulfide]
The level of expressed mRNA in the presence of chemical substance/The level of expressed mRNA in the absence of chemical substance (yeast gene YFL014W): 5.8 | The level of expressed mRNA in the presence of chemical substance/The level of expressed mRNA in the absence of chemical substance (yeast gene YFL030W): 4.9 | The level of expressed mRNA in the presence of chemical substance/The level of expressed mRNA in the absence of chemical substance (yeast gene YFL031W): 0.7 | The level of expressed mRNA in the presence of chemical substance/The level of expressed mRNA in the absence of chemical substance (yeast gene YFL056C): 31.3 | The level of expressed mRNA in the presence of chemical substance/The level of expressed mRNA in the absence of chemical substance (yeast gene YFL057C): 46.1 | The level of expressed mRNA in the presence of chemical substance/The level of expressed mRNA in the absence of chemical substance (yeast gene YFR047C): 1.5 | level of expressed mRNA in the presence/in the absence of chemical substance (yeast gene YGL012W): 0.9 | The level of expressed mRNA in the presence of chemical substance/The level of expressed mRNA in the absence of chemical substance (yeast gene YGL022W): 0.4 | level of expressed mRNA in the presence/in the absence of chemical substance (yeast gene YGL115W): 1.2 | The level of expressed mRNA in the presence of chemical substance/The level of expressed mRNA in the absence of chemical substance (yeast gene YGL126W): 0.7 | The level of expressed mRNA in the presence of chemical substance/The level of expressed mRNA in the absence of chemical substance (yeast gene YGL202W): 1.7 | level of expressed mRNA in the presence/in the absence of chemical substance (yeast gene YGL205W): 0.6 | The level of expressed mRNA in the presence of chemical substance/The level of expressed mRNA in the absence of chemical substance (yeast gene YGL209W): 0.4 | The level of expressed mRNA in the presence of chemical substance/The level of expressed mRNA in the absence of chemical substance (yeast gene YGL248W): 2.9 | The level of expressed mRNA in the presence of chemical substance/The level of expressed mRNA in the absence of chemical substance (yeast gene YGL252C): 1.7 | The level of expressed mRNA in the presence of chemical substance/The level of expressed mRNA in the absence of chemical substance (yeast gene YGR037C): 1.4 | The level of expressed mRNA in the presence of chemical substance/The level of expressed mRNA in the absence of chemical substance (yeast gene YGR055W): 2.4 | level of expressed mRNA in the presence/in the absence of chemical substance (yeast gene YGR096W): 0.8 | level of expressed mRNA in the presence/in the absence of chemical substance (yeast gene YGR191W): 0.7 | The level of expressed mRNA in the presence of chemical substance/The level of expressed mRNA in the absence of chemical substance (yeast gene YGR194C): 2.1 | level of expressed mRNA in the presence/in the absence of chemical substance (yeast gene YGR204W): 2.3 | The level of expressed mRNA in the presence of chemical substance/The level of expressed mRNA in the absence of chemical substance (yeast gene YGR256W): 2.5 | The level of expressed mRNA in the presence of chemical substance/The level of expressed mRNA in the absence of chemical substance (yeast gene YGR282C): 0.8 | level of expressed mRNA in the presence/in the absence of chemical substance (yeast gene YGR288W): 2.6 | level of expressed mRNA in the presence/in the absence of chemical substance (yeast gene YHR025W): 0.4 | The level of expressed mRNA in the presence of chemical substance/The level of expressed mRNA in the absence of chemical substance (yeast gene YHR111W): 4.2 | level of expressed mRNA in the presence/in the absence of chemical substance (yeast gene YHR123W): 1.1 | The level of expressed mRNA in the presence of chemical substance/The level of expressed mRNA in the absence of chemical substance (yeast gene YHR137W): 0.9 | The level of expressed mRNA in the presence of chemical substance/The level of expressed mRNA in the absence of chemical substance (yeast gene YHR174W): 1.5 | The level of expressed mRNA in the presence of chemical substance/The level of expressed mRNA in the absence of chemical substance (yeast gene YHR176W): 6.4 | level of expressed mRNA in the presence/in the absence of chemical substance (yeast gene YHR210C): 0.9 | level of expressed mRNA in the presence/in the absence of chemical substance (yeast gene YIL006W): 1.1 | The level of expressed mRNA in the presence of chemical substance/The level of expressed mRNA in the absence of chemical substance (yeast gene YIL045W): 3.2 | The level of expressed mRNA in the presence of chemical substance/The level of expressed mRNA in the absence of chemical substance (yeast gene YIL107C): 3.5 | The level of expressed mRNA in the presence of chemical substance/The level of expressed mRNA in the absence of chemical substance (yeast gene YIL154C): 1.0 | The level of expressed mRNA in the presence of chemical substance/The level of expressed mRNA in the absence of chemical substance (yeast gene YIL155C): 2.9 | The level of expressed mRNA in the presence of chemical substance/The level of expressed mRNA in the absence of chemical substance (yeast gene YIL167W): 12.7 | The level of expressed mRNA in the presence of chemical substance/The level of expressed mRNA in the absence of chemical substance (yeast gene YIL172C): 7.1 | The level of expressed mRNA in the presence of chemical substance/The level of expressed mRNA in the absence of chemical substance (yeast gene YIR034C): 3.5 | The level of expressed mRNA in the presence of chemical substance/The level of expressed mRNA in the absence of chemical substance (yeast gene YIR036C): 1.9 | The level of expressed mRNA in the presence of chemical substance/The level of expressed mRNA in the absence of chemical substance (yeast gene YJL031C): 3.6 | The level of expressed mRNA in the presence of chemical substance/The level of expressed mRNA in the absence of chemical substance (yeast gene YJL068C): 3.1 | The level of expressed mRNA in the presence of chemical substance/The level of expressed mRNA in the absence of chemical substance (yeast gene YJL088W): 4.1 | The level of expressed mRNA in the presence of chemical substance/The level of expressed mRNA in the absence of chemical substance (yeast gene YJL099W): 3.1 | level of expressed mRNA in the presence/in the absence of chemical substance (yeast gene YJL121C): 0.4 | level of expressed mRNA in the presence/in the absence of chemical substance (yeast gene YJL167W): 0.9 | The level of expressed mRNA in the presence of chemical substance/The level of expressed mRNA in the absence of chemical substance (yeast gene YJL172W): 1.9 | The level of expressed mRNA in the presence of chemical substance/The level of expressed mRNA in the absence of chemical substance (yeast gene YJL219W): 2.3 | level of expressed mRNA in the presence/in the absence of chemical substance (yeast gene YJR077C): 0.7 | The level of expressed mRNA in the presence of chemical substance/The level of expressed mRNA in the absence of chemical substance (yeast gene YJR137C): 4.8
